Results: patent publication US12534501B2, “Targeting deregulated Wnt signaling in cancer using stabilized alpha-helices of BCL-9” (Dana-Farber Cancer Institute, Inc., priority 2011, dated 2026)
Numbered stars: 1 amine (or outer) side, 2 acyl side, 3 side chain; on linkers, the order of the positions; unused ones are H or OH. Bridge positions count the residues as written; N and C are the ends. Square brackets hold non-standard residues; d marks the D form. Peptide text beside a SMILES is read from it. ξ: configuration not given here. ξαMeNle(6-ylidene) = CC(CCCC=[*:3])(N[*:1])C(=O)[*:2]; Nle = CCCC[C@H](N)C(=O)O

What was measured:
Colo320 cells [1] = assay: Cellular uptake of FITC-labelled peptides; type: cell-based; settings: FITC derivatives
Procedure: For fluorescence microscopy evaluation, cells were prepared using a cytocentrifuge (Thermo Shandon) and fixed as previously described (Sukhdeo, K. et al. Proc Natl Acad Sci USA 104, 7516-21 (2007); Mani, M. et al. Cancer Res 69, 7577-86 (2009)). Anti-β-catenin and rhodamine-conjugated secondary antibodies (5 μg/ml; Southern Biotechnology) were employed. Images were obtained using a BioRad Radiance 2000 laser scanning confocal microscope. Cell permeability of SAH-BCL9B and SAH-BCL9B(R359E) were determined by fluorescence microscopy of cells treated with FITC-derivatives of the above described stapled peptides and also by blotting/fluorescence scan, performed as previously described (Pitter, K. et al Methods Enzymol, 446, (2008), 387-408; Walensky, L. D. et al. Science 305, 1466-70 (2004). See results in FIG. 1E, FIG. 7.

[2] = tested on: β-catenin/BCL9-driven transcription in HCT116 cells; assay: TOP-FLASH dual luciferase assay with pcDNA-BCL9 transfection; type: cell-based; settings: HCT116, TOP-FLASH and pcDNA-BCL9, peptides 5 μM, 24 h
[3] = tested on: NFκB luciferase reporter in Colo320 cells; assay: NFκB reporter gene transcriptional assay; type: cell-based; settings: selectivity control
Procedure: Luciferase activity was measured using the Dual Luciferase Reporter Assay System (Promega) as previously described (Sukhdeo, K. et al. Proc Natl Acad Sci USA 104, 7516-21 (2007)). To measure Wnt or NFκB reporter activity, Colo320 cells were transfected with TOP-FLASH, FOP-FLASH plasmid (Millipore Corporation) or NFκB luciferase reporter (Stratagene), along with an internal Renilla control plasmid (hRL-null). Transfection was accomplished using FuGENE (Roche) according to the manufacturer's protocol. The results were normalized to control Renilla activity. The reported data represent the average of three independent transfection experiments performed in triplicate. See results in FIG. 9, FIG. 10.

[4] = tested on: GFP-positive Colo320 cells in NOD/SCID mice; assay: Colo320 intraperitoneal xenograft model; type: in vivo
Procedure: To explore the therapeutic potential of targeting the BCL9/β-catenin interaction, the capacity of SAH-BCL9B to suppress tumor growth was examined in vivo. GFP-expressing Colo320 cells (1×10^6) were injected into the peritoneum of sublethally irradiated NOD/SCID mice. Two days after cellular injection, mouse cohorts (n=6) were treated with vehicle (2.5% DMSO in D5W), SAH-BCL9B, or SAH-BCL9B(R359E) peptides (20 mg/kg) for a total of 6 doses administered intraperitoneally every other day. On day 40 of the experiment, mice were sacrificed and evaluated for tumor burden and metastasis by whole body imaging and histologic examination of harvested GFP-positive tissues. […] Importantly, no histologic changes in normal murine tissues were observed across the treatment groups upon necropsy.
GFP-positive Colo320 cells were generated as previously reported (Mani, M. et al. Cancer Res 69, 7577-86 (2009)). Cells were pelleted, resuspended in sterile 1x PBS and injected intraperitoneally (1×10^6 cells/mouse) into 5-week-old sublethally irradiated NOD.CB17-PrkdcSCID/J mice (Jackson Laboratory) (n=6 per cohort). Two days after cellular inoculation, mice were treated by intraperitoneal injection with vehicle (2.5% DMSO in D5W) or SAH-BCL9 peptides (20 mg/kg) on alternate days for a total of 6 doses. Forty days after tumor cell injection, the mice were euthanized and GFP-positive tumor visualized using an ImageQuant LAS-4000 (GE Healthcare). Complete necropsies were performed for each experimental animal and livers were sectioned in their entirety at 5 mm intervals for quantitation of tumor metastases. Tissues were subjected to H&E staining and immunohistochemical analysis using anti-CD34 and anti-CD44 antibodies.

HUVEC = assay: In vitro angiogenesis assay (capillary tube formation); type: cell-based, human; settings: HUVEC with supernatants of Colo320 or MM1S cells treated at 5 μM for 24 h; read at 5 h
Procedure: Angiogenesis was evaluated as previously described (Mani, M. et al. Cancer Res 69, 7577-86 (2009)) using an in vitro angiogenesis assay kit (Millipore). For capillary tube formation analysis, HUVEC were cultured on polymerized matrix gel and exposed to supernatant media collected from Colo320 or MM1S cells treated with vehicle (0.5% DMSO), SAH-BCL9B peptides (5 μM) for 24 h. The number of capillary tubes formed after 5 h treatment at 37° C. was determined by counting 5 randomly selected fields at 40× magnification, according to manufacture's instructions. HUVEC cultured in VEGF media and VEGF-free media were used as positive and negative controls, respectively. Cellular invasion assays were performed using Matrigel Boyden chambers (BD Biosciences) as described (Mani, M. et al. Cancer Res 69, 7577-86 (2009)). The reported data represent the average of three independent experiments performed in triplicate. See results in FIG. 3H-FIG. 3I.

LS174T cell line = assay: Cell proliferation of cultured colon cancer cells; type: cell-based; settings: does not express BCL9
Procedure: Cell proliferation assays were performed as described (Sukhdeo, K. et al. Proc Natl Acad Sci USA 104, 7516-21 (2007)). Cell viability was measured using the CellTiter-Glo assay (Promega) according to the manufacturer's instructions. Apoptosis was evaluated by activated caspase-3 and PARP western blotting. See results in FIG. 3A-FIG. 3F, FIG. 13, and FIG. 20.

Colo320 cells [5] = assay: Combination with 5-fluorouracil, 3H-thymidine incorporation; type: cell-based; settings: Colo320, increasing concentrations of 5-FU
Procedure: To test whether the anti-proliferative effect of SAH-BCL9B could synergize with other agents commonly used to treat MM or CRC, combination treatment studies were conducted. Indeed, the cytotoxic effects of 5-fluorouracil on CRC cells and of doxorubicin on MM cells were enhanced by SAH-BCL9B, but not by vehicle or the mutant peptide. See results in FIG. 21.

[6] = 20 mg/kg i.p. every other day, 6 doses, day 40

Q: Which cellular uptake (Colo320 cells [1]) does the source give for “SAH-BCL9B(R359E): SEQ ID NO: 7: LSQEQLEHEERSLXTLRXIQRBLF; reverse polarity point mutant, negative control of SAH-BCL9B” here?
A: Its cellular uptake is “similar”.

Q: Which results are given for `CCCC[C@H](NC(=O)[C@H](CCCNC(=N)N)NC(=O)[C@H](CCC(N)=O)NC(=O)[C@@H](NC(=O)C1(C)CCCC=CCCCC(C)(NC(=O)[C@H](CC(C)C)NC(=O)[C@H](CO)NC(=O)[C@H](CCCNC(=N)N)NC(=O)[C@H](CCC(=O)O)NC(=O)[C@H](CCCNC(=N)N)NC(=O)[C@H](Cc2c[nH]cn2)NC(=O)[C@H](CCC(=O)O)NC(=O)[C@H](CC(C)C)NC(=O)[C@H](CCC(N)=O)NC(=O)[C@H](CCC(=O)O)NC(=O)[C@H](CCC(N)=O)NC(=O)[C@H](CO)NC(=O)[C@H](CC(C)C)NC(C)=O)C(=O)N[C@@H]([C@@H](C)O)C(=O)N[C@@H](CC(C)C)C(=O)N[C@@H](CCCNC(=N)N)C(=O)N1)[C@@H](C)CC)C(=O)N[C@@H](CC(C)C)C(=O)N[C@@H](Cc1ccccc1)C(N)=O` (stereo partly drawn) [SAH-BCL9B] (Ac-LSQEQLEHRERSL[ξαMeNle(6-ylidene)]TLR[ξαMeNle(6-ylidene)]IQR[Nle]LF-NH2; staple 14-18)?
A: suppression of reporter activity on increasing BCL9 expression [2]: dose-responsively reversed; effect on NFκB reporter activity [3]: no effect; metastatic tumor nodules in the liver [4, 6]: overall reduction of metastatic tumor nodules; tumor burden (overall tissue fluorescence, whole body imaging) [4, 6]: markedly reduced; capillary CD34 immunoreactivity ([4]; 20 mg/kg i.p., 6 doses): less intense capillary CD34 immunoreactivity; number of intratumoral blood vessels ([4]; 20 mg/kg i.p., 6 doses): reduction in the number of intratumoral blood vessels; tumor cell CD44 immunoreactivity ([4]; 20 mg/kg i.p., 6 doses): decreased tumor cell CD44 immunoreactivity; TUNEL positivity in colonic tumor tissue ([4]; NOD/SCID mice bearing intraperitoneal Colo320 cells): notably increased TUNEL positivity; capillary tube formation (HUVEC): reduced capillary tube formation; proliferation (LS174T cell line): no response; enhancement of anti-tumor activity of 5-fluorouracil (Colo320 cells [5]): significantly enhanced the anti-tumor activity
